Structures are written as SMILES. Read-outs that look alike come from different tables or passages of the source.

The target in assay [1] is human Na,K-ATPase α2β1FXYD1 (Homo sapiens, UniProt P50993). In words: biochemical. It is filed as biochemical.
In assay [2] the test system is human Na,K-ATPase α2β3FXYD1. Nature of the assay: biochemical. Format: biochemical.
The subject of assay [3] is IOP in rabbits. It is filed as in vivo, New Zealand white rabbits. The note with it: one drop topically prior to 4AP, IOP over 5 hours.
Assay [4] relates to IOP in rabbits. Nature of the assay: Lowering of basal IOP in rabbits, topical. It is filed as in vivo, New Zealand white rabbits.
Assay [5] addresses human Na,K-ATPase α1β1FXYD1 (Homo sapiens (Human), UniProt P05023). In words: biochemical.
The target in assay [6] is human Na,K-ATPase α2β2FXYD1 (Homo sapiens (Human), UniProt P50993). Nature of the assay: biochemical.
Assay [7] concerns the target human Na,K-ATPase α2β3FXYD1 (Homo sapiens (Human), UniProt P50993). Nature of the assay: biochemical. It is filed as biochemical.

In the case of `CC1CN(CC2CC2)CCC(O[C@@H]2C(C)O[C@@H](O[C@@H]3C(C)O[C@@H](O[C@H]4CC[C@@]5(C)C(CCC6C5CC(O)[C@]5(C)[C@@H](C7=CC(=O)OC7)CC[C@]65O)C4)C[C@@H]3O)C[C@@H]2O)O1` (stereo in doubt) [DMcP, 4-((3S,5R,8R,9S,10S,12R,13S,14S,17R)-3-(((2R,4S,5S,6R)-5-(((2S,4S,5S,6R)-5-((4-(cyclopropylmethyl)-2-methyl-1,4-oxazepan-7-yl)oxy)-4-hydroxy-6-methyltetrahydro-2H-pyran-2-yl)oxy)-4-hydroxy-6-methyltetrahydro-2H-pyran-2-yl)oxy)-12,14-dihydroxy-10,13-dimethylhexadecahydro-1H-cyclopenta[a]phenanthren-17-yl)furan-2(5H)-one], the “Selectivity Ki ratio α1β1/α2β1” value in assay [1] is on record as 5.2. For the same molecule, in assay [2], the “Selectivity Ki ratio α1β1/α2β3” value was found to be 22. Also, in assay [3], the “concentration that prevents the rise of the 4AP-induced IOP” value was determined as 0.01 mM.

Turning to `CC1CN(C2CCC2)CCC(O[C@@H]2C(C)O[C@@H](O[C@@H]3C(C)O[C@@H](O[C@H]4CC[C@@]5(C)C(CCC6C5CC(O)[C@]5(C)[C@@H](C7=CC(=O)OC7)CC[C@]65O)C4)C[C@@H]3O)C[C@@H]2O)O1` (stereo in doubt) [DcB, 4-((3S,5R,8R,9S,10S,12R,13S,14S,17R)-3-(((2R,4S,5S,6R)-5-(((2S,4S,5S,6R)-5-((4-cyclobutyl-2-methyl-1,4-oxazepan-7-yl)oxy)-4-hydroxy-6-methyltetrahydro-2H-pyran-2-yl)oxy)-4-hydroxy-6-methyltetrahydro-2H-pyran-2-yl)oxy)-12,14-dihydroxy-10,13-dimethylhexadecahydro-1H-cyclopenta[a]phenanthren-17-yl)furan-2(5H)-one], the “Selectivity Ki ratio α1β1/α2β3” value in assay [2] was determined as 33. The “concentration that prevents the rise of the 4AP-induced IOP” value in assay [3] amounted to 0.01 mM. Also, the “reduction of basal IOP at higher concentration” value in assay [4] (2 mM) was “reduces the IOP similarly to 1 mM DcB”.

As for `CC1CN(CC2CC2)CCC(O[C@@H]2C(C)O[C@@H](OC3C(C)OC(O[C@H]4CC[C@@]5(C)C(CCC6C5CC[C@]5(C)[C@@H](C7=CC(=O)OC7)CC[C@]65O)C4)C[C@@H]3O)C[C@@H]2O)O1` (stereo in doubt) [DtxMcP, 4-((3S,5R,8R,9S,10S,13R,14S,17R)-3-(((2S,4S,5R,6R)-5-(((2S,4S,5S,6R)-5-((4-(cyclopropylmethyl)-2-methyl-1,4-oxazepan-7-yl)oxy)-4-hydroxy-6-methyltetrahydro-2H-pyran-2-yl)oxy)-4-hydroxy-6-methyltetrahydro-2H-pyran-2-yl)oxy)-14-hydroxy-10,13-dimethylhexadecahydro-1H-cyclopenta[a]phenanthren-17-yl)furan-2(5H)-one], the Ki in assay [5] stood at 25 ± 4 nM; in assay [1], 4.2 ± 0.4 nM; in assay [6] it was 5.4 ± 1.2 nM; in assay [7] it was 3.7 ± 0.5 nM. Also, the “Ki reduced compared to digoxin” value in assay [7] is reported as “about 10 fold”.

As for `CC1CN(C2CCC2)CCC(O[C@@H]2C(C)O[C@@H](OC3C(C)OC(O[C@H]4CC[C@@]5(C)C(CCC6C5CC[C@]5(C)[C@@H](C7=CC(=O)OC7)CC[C@]65O)C4)C[C@@H]3O)C[C@@H]2O)O1` (stereo in doubt) [DtxcB, 4-((3S,5R,8R,9S,10S,13R,14S,17R)-3-(((2S,4S,5R,6R)-5-(((2S,4S,5S,6R)-5-((4-cyclobutyl-2-methyl-1,4-oxazepan-7-yl)oxy)-4-hydroxy-6-methyltetrahydro-2H-pyran-2-yl)oxy)-4-hydroxy-6-methyltetrahydro-2H-pyran-2-yl)oxy)-14-hydroxy-10,13-dimethylhexadecahydro-1H-cyclopenta[a]phenanthren-17-yl)furan-2(5H)-one], the Ki came out at 30.7 ± 7.2 nM in assay [5], 5.4 ± 0.5 nM in assay [1], 5.3 ± 0.8 nM in assay [6] and 4.3 ± 0.6 nM in assay [7]. The “Ki reduced compared to digoxin” value in assay [7] is reported as “about 10 fold”.

Regarding `CC1CN(C)CCC(O[C@@H]2[C@H](C)O[C@@H](O[C@@H]3[C@H](C)O[C@@H](O[C@H]4CC[C@@]5(C)C(CCC6C5C[C@H](O)[C@]5(C)[C@@H](C7=CC(=O)OC7)CC[C@]65O)C4)C[C@@H]3O)C[C@@H]2O)O1` (stereo partly shown) [DMe], in assay [1], the “Selectivity Ki ratio α1β1/α2β1” value came to 6.7. Also, the “Selectivity Ki ratio α1β1/α2β3” value in assay [2] turned out to be 9.5. Further, in assay [4] (one drop of 1 mM solution, other eye PBS), the “effect on lowering the basal IOP” value is recorded as “coincides with other observations”.

As to `CC(=O)O[C@H]1C[C@H](O[C@H]2[C@@H](OC(C)=O)C[C@H](O[C@H]3CC[C@@]4(C)[C@H](CC[C@@H]5[C@@H]4C[C@@H](OC(C)=O)[C@]4(C)[C@@H](C6=CC(=O)OC6)CC[C@]54O)C3)O[C@@H]2C)O[C@H](C)[C@H]1OC1CCN(C2CCC2)CC(C)O1` (stereo partly drawn) [TrisAcDcB, (2R,3R,4S,6R)-6-(((3S,5R,8R,9S,10S,12R,13S,14S,17R)-12-acetoxy-14-hydroxy-10,13-dimethyl-17-(5-oxo-2,5-dihydrofuran-3-yl)hexadecahydro-1H-cyclopenta[a]phenanthren-3-yl)oxy)-3-(((2S,4S,5R,6R)-4-acetoxy-5-((4-cyclobutyl-2-methyl-1,4-oxazepan-7-yl)oxy)-6-methyltetrahydro-2H-pyran-2-yl)oxy)-2-methyltetrahydro-2H-pyran-4-yl acetate], the “time to minimum IOP” value in assay [4] (0.05-0.2 mM) was in the range of 5 to 6 h. Moreover, the “minimum IOP” value in assay [4] (dropped from 15-16 mmHg, 0.05-0.2 mM) is listed as 12 mmHg. The “effect on basal IOP in the first hours (lag)” value in assay [4] (one 30 μl drop, 0.05, 0.1, 0.2 mM) is recorded as “no effect was observed at the first four hours”. Also, in assay [4] (prodrug, 0.05-0.2 mM), the “time of return of IOP to the control level” value stood at 12 h. Also, the “maximal effect on IOP compared with parent DcB” value in assay [4] (rabbit, in vivo) was “essentially equal to that produced by the parent DcB”.

Take `[O]=[V]([OH])([OH])[OH]` [vanadate, reference compound]: the Ki in assay [7] (read-out: apparent vanadate affinity (Ki vanadate) α2β3) was determined as 19000 nM.

(Values after US11077128B2, “Selective inhibitors of Alpha2-containing isoforms of Na,K-ATPase and use thereof for reduction of intraocular pressure” (Yeda Research and Development Co. Ltd., priority 2015, dated 2021).)
